# Test results reported in patent US20230024302A1, “2,3,5-TRISUBSTITUTED PYRAZOLO[1,5-A]PYRIMIDINE COMPOUNDS” (Arcus Biosciences, Inc., priority 2019, published 2023).
# Read-outs that look alike come from different tables or passages of the source.
# Legend:
# [1] = target: T1, PI3Kγ (Homo sapiens, UniProt P48736); experiment: PI3Kγ cellular assay in THP-1 cells (AKT pS473 AlphaLISA); type: cell-based
# T1 construct: host or cells: THP-1
# Procedure, shortened: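 Serum-starved THP-1 cells (1.8×10^5/well, serum-free DMEM) treated with compounds from 4 nM to 30 μM in 2% DMSO, then stimulated and lysed.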
# [2] = target: T2, PI3Kγ (p120γ) (Homo sapiens, UniProt P48736); experiment: Inhibition of PI3K kinase activity (ADP Glo), PI3Kγ; details: read-out: biochemical potency (PI3Kγ IC50)
# T2 construct: purchased Promega V1761
# T2 sequence (P48736 whole entry): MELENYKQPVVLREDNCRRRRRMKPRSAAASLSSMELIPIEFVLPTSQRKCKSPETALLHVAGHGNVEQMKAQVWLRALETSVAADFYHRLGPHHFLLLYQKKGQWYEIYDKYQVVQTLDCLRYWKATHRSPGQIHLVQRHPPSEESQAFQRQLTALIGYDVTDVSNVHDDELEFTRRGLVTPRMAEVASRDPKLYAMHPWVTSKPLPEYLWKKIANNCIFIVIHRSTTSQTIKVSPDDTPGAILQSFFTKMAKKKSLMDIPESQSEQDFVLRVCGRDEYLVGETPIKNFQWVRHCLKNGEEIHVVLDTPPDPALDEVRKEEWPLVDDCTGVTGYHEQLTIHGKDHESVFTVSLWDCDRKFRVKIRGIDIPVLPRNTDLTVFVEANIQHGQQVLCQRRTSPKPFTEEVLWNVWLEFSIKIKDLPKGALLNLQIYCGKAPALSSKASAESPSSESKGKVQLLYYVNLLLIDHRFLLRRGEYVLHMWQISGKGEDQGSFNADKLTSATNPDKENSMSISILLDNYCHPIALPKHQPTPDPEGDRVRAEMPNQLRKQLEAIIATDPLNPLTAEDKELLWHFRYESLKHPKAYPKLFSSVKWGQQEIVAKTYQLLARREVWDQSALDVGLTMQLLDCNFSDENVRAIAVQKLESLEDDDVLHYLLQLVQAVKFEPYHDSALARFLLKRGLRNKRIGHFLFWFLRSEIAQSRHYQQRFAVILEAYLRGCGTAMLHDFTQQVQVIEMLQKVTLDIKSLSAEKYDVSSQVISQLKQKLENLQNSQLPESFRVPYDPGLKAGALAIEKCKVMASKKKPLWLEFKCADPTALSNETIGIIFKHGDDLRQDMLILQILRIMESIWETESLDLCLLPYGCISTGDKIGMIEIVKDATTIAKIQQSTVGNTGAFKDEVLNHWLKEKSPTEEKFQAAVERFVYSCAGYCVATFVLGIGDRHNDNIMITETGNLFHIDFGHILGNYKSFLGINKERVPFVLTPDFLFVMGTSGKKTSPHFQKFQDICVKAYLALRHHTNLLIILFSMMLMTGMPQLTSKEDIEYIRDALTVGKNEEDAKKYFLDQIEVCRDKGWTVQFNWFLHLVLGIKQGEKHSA
# Procedure, shortened: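 Recombinant p120γ (8 nM, 2× stock) was preincubated with compound for 1 h at rt in HEPES pH 7.4, NaCl, MgCl2 and 0.05% BSA. Reaction was started with PIP2 (0.1 mg/ml, 2×) and ATP (50 μM, 2×) and ran 60 min at rt. ADP formed was read by ADP-Glo luminescence, and IC50 came from a 4-parameter fit.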
# [3] = Table 1, rhMCP-1 stimulated AKT pS473, read-out: cellular potency (PI3Kγ IC50)
# [4] = Table 2, rhMCP-1 stimulated AKT pS473, read-out: cellular potency (PI3Kγ IC50)
# [5] = AKT pS473, read-out: cellular potency (PI3Kγ IC50)
# [6] = Table 6, rhMCP-1 stimulated AKT pS473, read-out: cellular potency (PI3Kγ IC50)
# [7] = Table 3, rhMCP-1 stimulated AKT pS473, read-out: cellular potency (PI3Kγ IC50)
# T1 sequence (P48736 whole entry): as above
smiles,measurement,setting,value
"C[C@@H](C1CC1)N1Cc2cc(-c3ccn4nc(N)c(C(=O)Nc5ncn(C)n5)c4n3)cc(NS(C)(=O)=O)c2C1=O [Example 109, 2-Amino-5-{2-[(1S)-1-cyclopropylethyl]-7-methanesulfonamido-1-oxo-2,3-dihydro-1H-isoindol-5-yl}-N-(1-methyl-1H-1,2,4-triazol-3-yl)pyrazolo[1,5-a]pyrimidine-3-carboxamide]",IC50,[1]; [3],100 to 1000 nM
same,IC50,"[2]; Table 1, p120γ",< 100 nM
Cc1cc(-c2ccn3nc(N)c(C(=O)N[C@H]4CC[C@@H](O)CC4)c3n2)cc2c1C(=O)N([C@@H](C)C1CC1)C2 [Example 205],IC50,[1]; [4],100 to 1000 nM
same,IC50,"[2]; Table 2, p120γ",< 100 nM
"C[C@@H](C1CC1)N1Cc2cc(-c3ccn4nc(N)c(C(=O)Nc5cccnc5)c4n3)cc(NS(C)(=O)=O)c2C1=O [Example 99, (S)-2-Amino-5-(2-(1-cyclopropylethyl)-7-(methylsulfonamido)-1-oxoisoindolin-5-yl)-N-(pyridin-3-yl)pyrazolo[1,5-a]pyrimidine-3-carboxamide]",IC50,[1]; [3],< 100 nM
same,IC50,"[2]; Table 1, p120γ",< 100 nM
C[C@@H](C1CC1)N1Cc2cc(-c3ccn4nc(N)c(C(=O)Nc5ccc(CC(F)(F)F)nc5)c4n3)cc(NS(C)(=O)=O)c2C1=O [Example 389],IC50,[1]; [5],100 to 1000 nM
same,IC50,[2],< 100 nM
Cc1cc(-c2ccn3nc(N)c(C(=O)N[C@@H]4CCNC4=O)c3n2)cc2c1C(=O)N([C@@H](C)C1CC1)C2 [Example 283],IC50,[1]; [4],100 to 1000 nM
same,IC50,"[2]; Table 2, p120γ",< 100 nM
"C[C@@H](C1CC1)N1Cc2cc(-c3ccn4nc(N)c(C(=O)NC5CC5)c4n3)cc(S(=O)(=O)C3CCCC3)c2C1=O [Example 137, 2-Amino-5-[7-(cyclopentanesulfonyl)-2-[(1S)-1-cyclopropylethyl]-1-oxo-2,3-dihydro-1H-isoindol-5-yl]-N-cyclopropylpyrazolo[1,5-a]pyrimidine-3-carboxamide]",IC50,[1]; [3],< 100 nM
same,IC50,"[2]; Table 1, p120γ",< 100 nM
"C[C@@H](C1CC1)N1Cc2cc(-c3ccn4nc(N)c(C(=O)N[C@H]5CC[C@@](C)(O)CC5)c4n3)cc(C(F)(F)F)c2C1=O [Example 54, 2-[(S)-1-Cyclopropylethyl]-5-{2-amino-3-[(cis-4-hydroxy-4-methylcyclohexylamino)carbonyl]-1,4,7a-triaza-5-indenyl}-7-(trifluoromethyl)-1-isoindolinone]",IC50,[1]; [3],< 100 nM
same,IC50,"[2]; Table 1, p120γ",< 100 nM
"C[C@@H](C1CC1)N1Cc2cc(-c3ccn4nc(N)c(C(=O)N[C@H]5C[C@](C)(O)C5)c4n3)cc(NS(C)(=O)=O)c2C1=O [Example 82, 2-Amino-5-{2-[(1S)-1-cyclopropylethyl]-7-methanesulfonamido-1-oxo-2,3-dihydro-1H-isoindol-5-yl}-N-[trans-3-hydroxy-3-methylcyclobutyl]pyrazolo[1,5-a]pyrimidine-3-carboxamide]",IC50,[1]; [3],< 100 nM
same,IC50,"[2]; Table 1, p120γ",< 100 nM
CC[C@@H](C)N1Cc2cc(-c3ccn4nc(N)c(C(=O)NC5CC5)c4n3)cc(C)c2C1=O [Example 306],IC50,[1]; [4],100 to 1000 nM
same,IC50,"[2]; Table 2, p120γ",< 100 nM
C[C@H](N1Cc2cc(-c3ccn4nc(N)c(C(=O)NC5CC5)c4n3)cc(OC(F)(F)F)c2C1=O)C(F)(F)F [Example 415],IC50,[1]; [6],100 to 1000 nM
same,IC50,"[2]; Table 6, p120γ",< 100 nM
Cc1cc(-c2ccn3nc(N)c(C(=O)N[C@@H](C)C(N)=O)c3n2)cc2c1C(=O)N([C@@H](C)C1CC1)C2 [Example 190],IC50,[1]; [4],100 to 1000 nM
same,IC50,"[2]; Table 2, p120γ",< 100 nM
"Cc1cc(NC(=O)c2c(N)nn3ccc(-c4cc5c(c(NS(C)(=O)=O)c4)C(=O)N([C@@H](C)C4CC4)C5)nc23)cc(C)n1 [Example 102, (S)-2-Amino-5-(2-(1-cyclopropylethyl)-7-(methylsulfonamido)-1-oxoisoindolin-5-yl)-N-(2,6-dimethylpyridin-4-yl)pyrazolo[1,5-a]pyrimidine-3-carboxamide]",IC50,[1]; [3],< 100 nM
same,IC50,"[2]; Table 1, p120γ",< 100 nM
CC[C@H](CO)NC(=O)c1c(N)nn2ccc(-c3cc(C)c4c(c3)CN([C@@H](C)C3CC3)C4=O)nc12 [Example 183],IC50,[1]; [4],100 to 1000 nM
same,IC50,"[2]; Table 2, p120γ",< 100 nM
Cc1cc(-c2ccn3nc(N)c(C(=O)NCC4(O)CC4)c3n2)cc2c1C(=O)N([C@@H](C)C1CC1)C2 [Example 188],IC50,[1]; [4],100 to 1000 nM
same,IC50,"[2]; Table 2, p120γ",< 100 nM
"C[C@H](N1Cc2cc(-c3ccn4nc(N)c(C(=O)N[C@H]5CC[C@@](C)(O)CC5)c4n3)cc(NS(C)(=O)=O)c2C1=O)C(F)(F)F [Example 122, 2-Amino-5-{7-methanesulfonamido-1-oxo-2-[(2S)-1,1,1-trifluoropropan-2-yl]-2,3-dihydro-1H-isoindol-5-yl}-N-[cis-4-hydroxy-4-methylcyclohexyl]pyrazolo[1,5-a]pyrimidine-3-carboxamide]",IC50,[1]; [3],< 100 nM
same,IC50,"[2]; Table 1, p120γ",< 100 nM
CC(C)[C@H](CO)NC(=O)c1c(N)nn2ccc(-c3cc4c(c(NS(C)(=O)=O)c3)C(=O)N([C@@H](C3CC3)C(F)(F)F)C4)nc12 [Example 400],IC50,[1]; [5],100 to 1000 nM
same,IC50,[2],< 100 nM
C[C@@H](C1CC1)N1Cc2cc(-c3ccn4nc(N)c(C(=O)N[C@H]5CNC[C@@H]5O)c4n3)cc(OC(F)(F)F)c2C1=O [Example 424],IC50,[1]; [6],> 1000 nM
same,IC50,"[2]; Table 6, p120γ",< 100 nM
"C[C@H](CO)NC(=O)c1c(N)nn2ccc(-c3cc4c(c(OCC(F)(F)F)c3)C(=O)N([C@@H](C)C3CC3)C4)nc12 [Example 156, 2-Amino-5-{2-[(1S)-1-cyclopropylethyl]-1-oxo-7-(2,2,2-trifluoroethoxy)-2,3-dihydro-1H-isoindol-5-yl}-N-[(2R)-1-hydroxypropan-2-yl]pyrazolo[1,5-a]pyrimidine-3-carboxamide]",IC50,[1]; [3],< 100 nM
same,IC50,"[2]; Table 1, p120γ",< 100 nM
"Cc1cc(-c2ccn3nc(N)c(C(=O)Nc4cccc(C(=O)O)c4)c3n2)cc2c1C(=O)N([C@@H](C)C1CC1)C2 [Example 15, m-[(5-{2-[(S)-1-Cyclopropylethyl]-7-methyl-5-isoindolinoyl}-2-amino-1,4,7a-triaza-3-indenyl)carbonylamino]benzoic acid]",IC50,[1]; [3],< 100 nM
same,IC50,"[2]; Table 1, p120γ",< 100 nM
C[C@@H](C1CC1)N1Cc2cc(-c3ccn4nc(N)c(C(=O)NC5(CO)CC5)c4n3)cc(C(F)(F)F)c2C1=O [Example 342],IC50,[1]; [7],100 to 1000 nM
same,IC50,"[2]; Table 3, p120γ",< 100 nM
"C[C@@H](C1CC1)N1Cc2cc(-c3ccn4nc(N)c(C(=O)NC(C)(C)CO)c4n3)cc(NS(C)(=O)=O)c2C1=O [Example 94, 2-Amino-5-{2-[(1S)-1-cyclopropylethyl]-7-methanesulfonamido-1-oxo-2,3-dihydro-1H-isoindol-5-yl}-N-(1-hydroxy-2-methylpropan-2-yl)pyrazolo[1,5-a]pyrimidine-3-carboxamide]",IC50,[1]; [3],< 100 nM
same,IC50,"[2]; Table 1, p120γ",< 100 nM
Nc1nn2ccc(-c3cc4c(c(C(F)(F)F)c3)C(=O)N([C@@H](CO)C3CC3)C4)nc2c1C(=O)NC1CC1 [Example 340],IC50,[1]; [7],100 to 1000 nM
same,IC50,"[2]; Table 3, p120γ",< 100 nM
Cc1cc(-c2ccn3nc(N)c(C(=O)N[C@H](C)c4cnn(C)c4)c3n2)cc2c1C(=O)N([C@@H](C)C1CC1)C2 [Example 175],IC50,[1]; [4],100 to 1000 nM
same,IC50,"[2]; Table 2, p120γ",< 100 nM
C[C@H](CO)NC(=O)c1c(N)nn2ccc(-c3cc4c(c(O[C@H](C)C(F)(F)F)c3)C(=O)N([C@@H](C)C3CC3)C4)nc12 [Example 440],IC50,[1]; [6],100 to 1000 nM
same,IC50,"[2]; Table 6, p120γ",< 100 nM
"CC[C@H](CO)NC(=O)c1c(N)nn2ccc(-c3cc4c(c(NS(C)(=O)=O)c3)C(=O)N([C@@H](C)C(F)(F)F)C4)nc12 [Example 119, 2-Amino-N-[(2R)-1-hydroxybutan-2-yl]-5-{7-methanesulfonamido-1-oxo-2-[(2S)-1,1,1-trifluoropropan-2-yl]-2,3-dihydro-1H-isoindol-5-yl}pyrazolo[1,5-a]pyrimidine-3-carboxamide]",IC50,[1]; [3],< 100 nM
same,IC50,"[2]; Table 1, p120γ",< 100 nM
CNC(=O)c1c(N)nn2ccc(-c3cc(C)c4c(c3)CN([C@@H](C)C3CC3)C4=O)nc12 [Example 216],IC50,[1]; [4],100 to 1000 nM
same,IC50,"[2]; Table 2, p120γ",< 100 nM
"C[C@@H](C1CC1)N1Cc2cc(-c3ccn4nc(N)c(C(=O)N[C@H]5CC[C@H](O)C5)c4n3)cc(OC(F)(F)F)c2C1=O [Example 36, 2-Amino-5-{2-[(1S)-1-cyclopropylethyl]-1-oxo-7-(trifluoromethoxy)-2,3-dihydro-1H-isoindol-5-yl}-N-[(1S,3S)-3-hydroxycyclopentyl]pyrazolo[1,5-a]pyrimidine-3-carboxamide]",IC50,[1]; [3],< 100 nM
same,IC50,"[2]; Table 1, p120γ",< 100 nM
C[C@H](CO)NC(=O)c1c(N)nn2ccc(-c3cc4c(c(OC5CC(F)(F)C5)c3)C(=O)N([C@@H](C)C3CC3)C4)nc12 [Example 439],IC50,[1]; [6],100 to 1000 nM
same,IC50,"[2]; Table 6, p120γ",< 100 nM
Cc1cc(-c2ccn3nc(N)c(C(=O)NC(C)C4COC4)c3n2)cc2c1C(=O)N([C@@H](C)C1CC1)C2 (stereo partly shown) [Example 287],IC50,[1]; [4],100 to 1000 nM
same,IC50,"[2]; Table 2, p120γ",100 to 1000 nM
C[C@@H](C1CC1)N1Cc2cc(-c3ccn4nc(N)c(C(=O)NC5CC5)c4n3)cc(C(F)(F)F)c2C1=O [Example 349],IC50,[1]; [7],100 to 1000 nM
same,IC50,"[2]; Table 3, p120γ",< 100 nM
"C[C@@H](C1CC1)N1Cc2cc(-c3ccn4nc(N)c(C(=O)NC5CC5)c4n3)cc(OCC(F)(F)F)c2C1=O [Example 155, 2-Amino-N-cyclopropyl-5-{2-[(1S)-1-cyclopropylethyl]-1-oxo-7-(2,2,2-trifluoroethoxy)-2,3-dihydro-1H-isoindol-5-yl}pyrazolo[1,5-a]pyrimidine-3-carboxamide]",IC50,[1]; [3],< 100 nM
same,IC50,"[2]; Table 1, p120γ",< 100 nM
Cc1csc(NC(=O)c2c(N)nn3ccc(-c4cc(C)c5c(c4)CN([C@@H](C)C4CC4)C5=O)nc23)n1 [Example 300],IC50,[1]; [4],> 1000 nM
same,IC50,"[2]; Table 2, p120γ",< 100 nM
